Assay results reported in patent US20200384072A1, “THERAPY OF IONIZING RADIATION-INDUCED DISORDERS” (SCK-CEN, priority 2019, published 2020).

Columns and labels:
Assay type in all cases: cell-based, human
TICAE cells = assay: Intracellular ROS, CM-H2DCFDA flow cytometry, TICAE cells; settings: 100 μM TAT-Gap19, 0.1 Gy, 45 min
Experimental: TICAE and TIME cells were seeded in a 6-well plate at a density of 250000 cells/well. Three days later, cells reached 100% confluence. At 30 minutes before X-ray exposure (0.1 and 5 Gy), cells were washed with PBS to remove traces of the original medium. Afterwards, HMS supplemented with 25 mM HEPES (Sigma-Aldrich Co. LCC, Diegem, Belgium) and 10 μmol/L of the CM-H2DCFDA dye (Sigma-Aldrich Co. LCC, Diegem, Belgium) was added to the cells, and 100 μM TAT-Gap19 (Genosphere Biotechnologies, Paris, France) was added to block the Cx43 hemichannels. After irradiation, cells were washed with PBS and a 0.05% trypsin solution supplemented with 0.02% EDTA was used to detach the cells, followed by a 5 minute incubation time (37° C., 5% CO2). After trypsinization, the cells were transferred into a 1.5 mL tube and centrifuged for […] at 200 RCF. The supernatant was discard and the pellet was re-suspended in MSS without Ca2+ and Mg2+(Sigma-Aldrich Co. LCC, Diegem, Belgium). Finally, 1 μg/mL PI was added to each sample to exclude the dead cells. A positive control, 20 μmol/L tert-butyl hydroxyperoxide (tBHP), was added to the cells and incubated for 15 min. Intracellular ROS was assessed by analyzing the fluorescent signals using BD Accuri™ c6 Flow Cytometry (BD Biosciences, San Jose, Calif. USA). At least 10 000 events were measured. […]

TIME cells [1] = assay: Dextran fluorescein (10 kDa) dye uptake cell death assay, TIME cells
Experimental: Dextran fluorescein, staining late apoptotic and necrotic cells, was used to validate apoptosis in TIME cells after irradiation. Cells were seeded in a 24-well plate at a density of 1.5×10^5 cells/well in 6 biological replicates. Three days later, cells reached 100% confluence. Before X-ray exposure with 30 minutes, cells were refreshed with medium with or without 100 μM TAT-Gap19 (Genosphere Biotechnologies, Paris, France). At 6 h and 72 h after irradiation, cells were washed twice with HMS supplemented with 25 mM HEPES (Sigma-Aldrich Co. LCC, Diegem, Belgium) (HBSS-HEPES). Afterwards, the cells were incubated with 200 μM dextran fluorescein (10 kDa) (Life Technologies, Merelbeke, Belgium), dissolved in HBSS-HEPES. After six minutes, the staining was removed by washing six times with HBSS-HEPES. Finally, the fluorescence was measured using the IncuCyte ZOOM® system (Essen BioScience, Ann Arbor, Mich., USA) by using FITC channel and phase contrast to count the cells using a ×10 objective. The fluorescence signal was normalized to cell count.

TIME cells [2] = assay: Cytokine detection (Magnetic Luminex) in supernatant after irradiation, TIME cells
Experimental: TICAE and TIME cells were seeded in a 6-well plate at a density of 2.5×10^5 cells/well in 5 to 6 biological replicates. Two to three days later, cells reached 100% confluence. At 30 minutes before X-ray exposure, cells were refreshed with medium with or without 100 μM TAT-Gap19 (Genosphere Biotechnologies, Paris, France). At 24 h, 48 h, 72 h and 7 d after irradiation, the supernatant was collected. Medium was changed only for the 7 d time point experiment at the fourth day with fresh medium alone or with medium supplemented with 100 μM TAT-Gap19. For the simultaneous detection of multiple cytokines in the supernatants, the Magnetic Luminex® Assay (R&D systems, Minneapolis, […]) was used following manufacturer's instructions. Briefly, supernatants, standards and microparticles were incubated into a 96-well plate which was pre-coated with cytokine-specific antibodies. The immobilized antibodies were able to bind the cytokines of interest after 2 h incubation, then the plate was washed and incubation with a biotinylated antibody cocktail specific to the cytokines of interest was performed for 1 h. A second wash was performed to remove the unbound biotinylated antibodies. Further, a streptavidin-phycoerythrin conjugate was added to each well to bind to the biotinylated antibodies. After a final wash, the microparticles were resuspended in buffer and read using the Luminex® MAGPIX Analyzer (R&D systems, Minneapolis, […]).
In order to normalize to cell number, DAPI staining was performed for the 48 h after irradiation time point. Briefly, cells were washed with phosphate buffered saline (PBS) and fixed with 4% paraformaldehyde (PFA) for 15 minutes at room temperature. Afterwards, the cells were washed with PBS and stained with 1 μg/mL 4′,6-Diamidine-2′-phenylindole (DAPI) dissolved in 1×TBST, 0.005 g/v % TSA blocking powder (PerkinElmer, FP1012) (TNB). After one hour, cells were washed with PBS and DAPI signals were visualized with the Nikon Eclipse Ti automated inverted wide-field epifluorescence microscope equipped with a 5× magnification (Plan Fluor, numerical aperture 0.6) dry objective and a Nikon IE2000-E camera controlled by the MS Elements software. The intensity of the DAPI signals was determined with the FIJI software. Cell count for 24 h after irradiation experiment was performed by Moxi Z Mini Automated Cell Counter (ORFLO Technologies, Ketchum, Id., USA) after trypsinization. For the 72 h and 7 d post-irradiation cell counts, we used IncuCyte ZOOM™ phase contrast imaging based on 49 images taken per well with the 10× objective.

TAT-Gap19: connexin mimetic peptide, amino-acids 128-136 of the CL of Cx43 (SEQ ID NO: 2), Gap19 linked to TAT sequence; Cx43 hemichannel inhibitor (YGRKKRRQRRRKQIEIKKFK)
intracellular ROS generation (flow cytometry) (TICAE cells): significantly reduced intracellular ROS generation | dextran fluorescein staining (radiation-induced increase) (TIME cells [1]; 100 μM TAT-Gap19, 5 Gy at 6 h p.i., 5 and 0.1 Gy at 72 h p.i., including control response): inhibited | dextran fluorescein staining (TIME cells [1]; 100 μM TAT-Gap19, control and 0.1 Gy, 6 h p.i.): small increase | E-selectin readout (TIME cells [2]; 100 μM TAT-Gap19, 0.1 Gy): decreased | IL-6 readout (TIME cells [2]; 100 μM TAT-Gap19, 0.1 Gy): decreased | IL-8 readout (TIME cells [2]; 100 μM TAT-Gap19, 0.1 Gy): decreased | PECAM-1 readout (TIME cells [2]; 100 μM TAT-Gap19, 0.1 Gy): decreased | TNF-α readout (TIME cells [2]; 100 μM TAT-Gap19, 0.1 Gy): decreased | VCAM-1 readout (TIME cells [2]; 100 μM TAT-Gap19, 0.1 Gy): decreased | CRP (radiation-induced increase) (TIME cells [2]; 100 μM TAT-Gap19, 5 Gy, 24 h): significantly reduced the increase | E-Selectin (radiation-induced increase) (TIME cells [2]; 100 μM TAT-Gap19, 5 Gy, 24 h): significantly reduced the increase | ICAM-1 (radiation-induced increase) (TIME cells [2]; 100 μM TAT-Gap19, 5 Gy, 24 h): significantly reduced the increase | IL-1B (radiation-induced increase) (TIME cells [2]; 100 μM TAT-Gap19, 5 Gy, 24 h): significantly reduced the increase | MCP-1 (radiation-induced increase) (TIME cells [2]; 100 μM TAT-Gap19, 5 Gy, 24 h): significantly reduced the increase | PECAM-1 (radiation-induced increase) (TIME cells [2]; 100 μM TAT-Gap19, 5 Gy, 24 h): significantly reduced the increase | TNF-α (radiation-induced increase) (TIME cells [2]; 100 μM TAT-Gap19, 5 Gy, 24 h): significantly reduced the increase | IL-6 (radiation-induced increase) (TIME cells [2]; 100 μM TAT-Gap19, 5 Gy, 24 h, 48 h and 7 d p.i.): significantly reduced these responses | Endothelin-1 (radiation-induced increase) (TIME cells [2]; 100 μM TAT-Gap19, 5 Gy, 24 h, 72 h and 7 d p.i.): significantly decreased these responses | VCAM-1 (radiation-induced increase) (TIME cells [2]; 100 μM TAT-Gap19, 5 Gy, 24 h and 7 d p.i.): significantly reduced these responses | IL-8 levels (TIME cells [2]; 100 μM TAT-Gap19, 5 Gy, 7 d p.i.): significantly decreased IL-8 levels | Endothelin-1 readout (TIME cells [2]; 100 μM TAT-Gap19, control and 0.1 Gy): decreased | IL-6 readout (TIME cells [2]; 100 μM TAT-Gap19, control and 0.1 Gy, 7 d p.i.): increased
